Patent US6995272B2, “Crystal form of N-(4-trifluoromethylphenyl)-5-methylisoxazole-4-carboxamide” (Sanofi-Aventis Deutschland GmbH, priority 1997, dated 2006)
In brackets after ≈: the same amount, converted by molar mass.

Experiments:
[1] = Stability of the first crystal modification on storage (X-ray diffraction pattern); format: physicochemical
Method: Stability of the First Crystal Modification Samples of The first crystal modification were prepared as in Example 1 and were stored at various temperatures at atmospheric humidity. After the stated times, samples were taken and an X-ray diffraction pattern was prepared as in Example 1. […] For preparing the calibration curve for the quantitative determination, the reflection at 2θ=8.35° was used for phase 1 and the reflection at 2θ=16.1° was used for phase 2. The ratios of the corresponding peak heights were calculated and were correlated with the contents of phase 2. The limit of the method is 0.3%. The sample after storage for 1 month at 60° C. contains about 76% of the second crystal modification according to this method.

[2] = test system: humans who suffer from rheumatic arthritis; assay: Efficacy in humans who suffer from rheumatic arthritis; format: in vivo; conditions: drug comprising an effective content
Solubility in water = format: physicochemical; conditions: for Solubility in water, result: water at 37° C., sampling 5 hours, UV detection
Text: Solubility in Water [table]

[3] = Stability of the first crystal modification on storage (X-ray diffraction pattern); format: physicochemical; conditions: +40° C./75% relative humidity

Cc1oncc1C(=O)Nc1ccc(C(F)(F)F)cc1 [first crystal modification, N-(4-trifluoromethylphenyl)-5-methylisoxazole-4-carboxamide]
Crystal modification ([1]; 1 month, +25° C.): First
Crystal modification ([1]; 1 month, +40° C.): First
Crystal modification ([1]; 1 month, −15° C.): First
Crystal modification ([1]; 3 months, +25° C.): First
Crystal modification ([1]; 3 months, +40° C.): First
Crystal modification ([1]; 3 months, +60° C.): Second
Crystal modification ([1]; 3 months, −15° C.): First
Crystal modification ([1]; 6 months, +25° C.): First
Crystal modification ([1]; 6 months, +40° C.): First
Crystal modification ([1]; 6 months, −15° C.): First
stability (not converted into the second crystal modification) ([1]; temperature range from −15° C. to +40° C.): stable
efficacy in comparison with a drug comprising the second crystal modification [2]: same efficacy
Solubility in water, result (Solubility in water): 38 mg dissolved in 1 liter of water at 37 °C
solubility (Solubility in water; water, 37 °C, water, thermodynamic from solid, water, 37° C., read-out: water solubility (amount that can be dissolved)): 38 µg/mL (≈ 141 µM)
Crystal modification ([3]; 1 month): First
Crystal modification ([3]; 3 months): First
Crystal modification ([3]; 6 months): First

Cc1oncc1C(=O)Nc1ccc(C(F)(F)F)cc1 [second crystal modification, N-(4-trifluoromethylphenyl)-5-methylisoxazole-4-carboxamide]
Solubility in water, result (Solubility in water): 25 mg dissolved in 1 liter of water at 37 °C
water solubility (amount that can be dissolved) (Solubility in water; water, 37° C.): 25 µg/mL (≈ 92.5 µM)
